For experiment [1], the system named is α-secretase. Nature of the experiment: Increase of α-secretase activity (sAPPα amount, western blot densitometry, W4 cell line). In kind it is cell-based. The conditions noted are these: positive control, final concentration 1 mM, W4 cells, negative control average = 100.0. The procedure:
To study the effect of 70% methanol solution fraction obtained from Example 2 on the above-mentioned APP process, an experiment was conducted as follows using W4 cell line which produces APP in large amount.
The cells of W4 cell line were treated with 70% methanol solution fraction and then cultured for about 12 hours.

The subject of experiment [2] is rats treated with scopolamine. In words: Passive avoidance test, scopolamine-induced memory impairment. In kind it is in vivo, rat. The following applies: oral, 30 mg/L; untreated control = 100%, scopolamine group = 0%. From the text:
The experimental device used was a shuttle box 50 cm (W)×15 cm (L)×40 cm (H). The shuttle box was divided into two rooms via a guillotine door, where one room was a light room provided with illumination while the other room was a dark room covered entirely with a black cloth thereby allowing the difference in illuminating effect. First, a rat was placed in the light room and the guillotine door was opened while the light was being turned on. Then, the rat entered the dark room within 20 seconds to seek a dark place by instinct and as soon as the rat entered the dark room the guillotine door was closed. […] The next day, the above trained rats were placed again into the light room with the light on and allowed to enter the dark room. Here, the rats were subject to an electric shock of 0.8 mA for 3 seconds via an electronic grid installed on the bottom of the room. Twenty four hours after the above acquisition trial, the rats were again placed into the light room with the light on and allowed to enter the dark room. Here, the normal rats hesitated to enter the dark room by remembering the electric shock of the previous day. The latency time was measured by setting up the maximum latency time at 300 seconds. […]

The source of these data is US7919127B2, “Pulsatilla spp. extracts effective in brain function” (priority 2005, dated 2011).

Each structure is given as a SMILES string. Several values for one entry are separate records, joined by “and”; a condition that tells them apart may be missing. Equal entries are not always repeated.

For `CCCC(=O)O[C@@H]1[C@@H](C)[C@@]2(O)[C@@H](C=C(CO)C[C@]3(O)C(=O)C(C)=C[C@@H]23)[C@@H]2C(C)(C)[C@]12OC(=O)CCC` [PDBu, Phorbol 12,13-dibutyrate], the “Relative Density (sAPPα), Average” value in experiment [1] (average of 3 trials) is listed as 289.3. Besides, the “Relative Density (sAPPα)” value in experiment [1] (individual trials) was 226.5 and 314.1 and 327.2.

In the case of `Nc1c2c(nc3ccccc13)CCCC2` [tacrine], the “prevention of memory impairment” value in experiment [2] worked out at 35%.
